pIC50: −log10 of the molar value.
Tests used:
[1] = Light absorption maxima and molar extinction coefficients; format: physicochemical
Description: (§1) Compounds according to the invention were assessed and characterised by their light absorption maxima, and their molar extinction coefficients according to conventional test procedures. Most of the compound were tested for their biological activity according to conventional test procedures in the art. The PC50 represents phototoxic concentration 50%. which is the concentration of compound when exposed to a light dose as described herein, causes a 50% reduction in cancer cell growth vs an untreated control population. The phototoxicity index. PI, is the ratio of the PC50 to the cytotoxic concentration 50%. where the growth is reduced by 50% without a light dose being given.

normal rat liver = test: Photodynamic threshold dose in normal rat liver, depth of necrosis; format: in vivo, adult Wistat rats
Description: The photodynamic threshold dose in normal rat liver was used as a model. This has been developed by Singh and Wilson at McMaster University and used to study both chloroaluminum phthalocyanine sulfonate (ASPc) and photofrin (Patterson, M S, et at, Photochern Photobiol, 51,343-349, 1990, and Farrell, T J, et at, Proc SPIE1426, 146-155, 1991).
1. Inject compound at 2.5 mg/ml into tail vein of adult Wistat rats at doses of 5, 10.20 mg/kg.
2. 24 hours later expose liver by laparotomy and irradiate surface at up to four locations with a 5 mm diameter lightbeam from an argon-dye laser operating at 650 nm: incident power =40 m Watt: incident fluenee rate =200 mW cm^-2 : treatment time =5 or 10 minutes (60. 120 Joules cm^-2).
3. 24 hours later inject Evans Blue iv, sacrifice at 15 minutes, section Liver through each radiation spot and measure depth of necrosis as indicated by dye exclusion.

[2] = system: Adherent cells (HeLa RCA. SKOV OVCAR); test: Phototoxicity (Light): 3H-thymidine incorporation in adherent cells after irradiation, with dark cytotoxicity for PI; format: cell-based
Description: The media is removed and the cells washed three times with D-PBS. and then covered with D-PBS (200 μl ) and exposed to light from the same source used in the singlet oxygen assay.
This follows the procedure for phototoxicity except that the cells are never exposed to light. The assay is relative to a non-treated control.
as §1
PC50 is determined by a relatively simple in vitro assay on a cellular level, which is generally indicative of photosensitizing activity.

[3] = Singlet oxygen generation by photo-degradation of nitrosoanaline dye; settings: 15 minutes of irradiation, 4° C.

**Q.** Which “ε (molar extinction coefficient)” value [1] does the source give for “K2 [Ru(Pc)bis(triphenvlphosphine monosulfonate)]trihydrate [Compound A]” here?
**A.** The value was 88200 M⁻¹ cm⁻¹.

**Q.** What about the “λmax Q” value ([1]; in water (W)) of the same substance?
**A.** The value was 650.

**Q.** And the “depths of necrosis compared with previously studied agents” value (normal rat liver; at similar drug and light levels, Photofrin and AlSPc given ip)?
**A.** The value was “comparable to those with previously studied agents”.

**Q.** What about the “Depth of Necrosis” value (normal rat liver; dose 5 mg/kg iv, fluence 60 J cm^-2, 650 nm) of the same substance?
**A.** The value was 1.86 ± 0.34 mm.

**Q.** What about the “Depth of Necrosis” value (normal rat liver; dose 5 mg/kg iv, fluence 120 J cm^-2, 650 nm) of the same substance?
**A.** Its value is 2.5 ± 0.0 mm.

**Q.** What about the “Depth of Necrosis” value (normal rat liver; dose 10 mg/kg iv, fluence 60 J cm^-2, 650 nm) of the same substance?
**A.** Its value is 2.16 ± 0.10 mm.

**Q.** What about the “Depth of Necrosis” value (normal rat liver; dose 10 mg/kg iv, fluence 120 J cm^-2, 650 nm) of the same substance?
**A.** Its value is 2.41 ± 0.16 mm.

**Q.** And the “Depth of Necrosis” value (normal rat liver; dose 20 mg/kg iv, fluence 60 J cm^-2, 650 nm)?
**A.** The value was 1.66 ± 0.05 mm.

**Q.** And the “Depth of Necrosis” value (normal rat liver; dose 20 mg/kg iv, fluence 120 J cm^-2, 650 nm)?
**A.** Its value is 1.94 ± 0.04 mm.

**Q.** What about the “photodynamic activity in vivo” value (normal rat liver; in words) of the same substance?
**A.** The value was “photodynamically active in vivo”.

**Q.** What about the “PI (phototoxicity index)” value ([2]; ratio of PC50 to cytotoxic concentration 50% (no light)) of the same substance?
**A.** The value was over 100.

**Q.** And the pIC50 ([2]; with light dose, 50% reduction in cancer cell growth vs untreated control, 24 h incubation with sensitizer, read-out: PC50 (phototoxic concentration 50%))?
**A.** Its pIC50 is 5.94.

**Q.** With aluminium phthalocyanine sulphonate as the substance, how does the “rate of singlet oxygen production” value [3] read?
**A.** Its value is “on the order of one or two logs better than some of the sensitizers listed”.
